Measurements as given in ChEMBL document CHEMBL5380820, “Design and Discovery of Novel Cyclic Peptides as EDPs-EBP Interaction Inhibitors for the Treatment of Liver Fibrosis” (J Med Chem, 2023).
Active and inactive are the calls of the source. The rule behind the calls is not given here. Where a SMILES comes first, the peptide text is derived from it. Bridges are numbered along the chain shown (N, C = ends). [ ]: non-standard residue; d: D form. Aib = CC(C)(N)C(=O)O

What was measured:
LX-2 [1] = test: Antifibrotic activity against TGF-beta induced human LX2 cells assessed as inhibition of collagen I expression by measuring fluorescence intensity relative to control; type: functional
LX-2 [2] = test: Antifibrotic activity against TGF-beta induced human LX2 cells assessed as inhibition of alpha-SMA expression by measuring fluorescence intensity relative to control; type: functional
LX-2 [3] = test: Antifibrotic activity against TGF-beta induced human LX2 cells assessed as inhibition of neuraminidase activity using NA fluorogenic substrate by measuring fluorescence intensity relative to control; type: functional
LX-2 [4] = test: Antifibrotic activity against TGF-beta induced human LX2 cells assessed as reduction of alpha-SMA expression measured at 10 uM for 24 hrs by measuring fluorescence intensity; type: functional, cell-based
LX2 [5] = test: Inhibition of elastin receptor complex elastin binding protein subunit in human LX2 cells assessed as inhibition of EDP induced ERK phosphorylation treated at 10 uM for 24 hrs by Western blot analysis; type: cell-based
LX2 [6] = test: Inhibition of elastin receptor complex elastin binding protein subunit in human LX2 cells assessed as inhibition of EDP induced PI3K phosphorylation treated at 10 uM for 24 hrs by Western blot analysis; type: cell-based
LX-2 [7] = test: Antifibrotic activity against TGF-beta induced human LX2 cells assessed as reduction of collagen I expression measured at 10 uM for 24 hrs by measuring fluorescence intensity relative to control; type: functional; set-up: scale not given: the % may be the effect or the level left
LX-2 [8] = test: Antifibrotic activity against TGF-beta induced human LX2 cells assessed as reduction of alpha-SMA expression measured at 10 uM for 24 hrs by measuring fluorescence intensity relative to control; type: functional; set-up: scale not given: the % may be the effect or the level left
LX2 [9] = test: Inhibition of elastin receptor complex elastin binding protein subunit in human LX2 cells assessed as inhibition of EDP induced AMPK phosphorylation treated at 10 uM for 24 hrs by Western blot analysis; type: cell-based
LX-2 [10] = test: Antifibrotic activity against TGF-beta induced human LX2 cells assessed as inhibition of neuraminidase activity using NA fluorogenic substrate measured at 10 uM for 24 hrs by measuring fluorescence intensity; type: functional, cell-based
LX-2 [11] = test: Antifibrotic activity against TGF-beta induced human LX2 cells assessed as reduction of collagen I expression measured at 10 uM for 24 hrs by measuring fluorescence intensity; type: functional, cell-based
Mus musculus [12] = test: Antifibrotic activity in CCl4-induced C57BL/6 mouse model of liver fibrosis assessed as reduction in serum ALT level treated at 150 ug/kg, ip daily for 3 weeks; type: functional, organism-based; conditions: dose 150.0 µg/kg
Mus musculus [13] = test: Antifibrotic activity in CCl4-induced C57BL/6 mouse model of liver fibrosis assessed as reduction in serum AST level treated at 150 ug/kg, ip daily for 3 weeks; type: functional, organism-based; conditions: dose 150.0 µg/kg

Row | Compound | inhibition (INH) (LX-2 [1]) [%] | inhibition (INH) (LX-2 [2]) [%] | inhibition (INH) (LX-2 [3]) [%] | Activity (LX-2 [4]) | other results
1 | CC(C)C[C@@H]1NC(=O)[C@H](C(C)C)NC(=O)[C@H](C)NC(=O)[C@@H]2CCCN2C(=O)[C@H](CO)NC(=O)[C@H](C)NC(=O)[C@H](CCC(=O)O)NC(=O)[C@H](CC(=O)O)NC(=O)[C@H](CCC(N)=O)NC(=O)[C@H](C)NC(=O)[C@H](CO)NC(=O)[C@@H]2CCCN2C(=O)[C@H](CO)NC(=O)CNC1=O (cyclo(AQDEASPAVLGSPS)) | 1.6 | 20.7 | 42.2 | – | –
2 | H-VVGSPSAQDAASPL-NH2 | 17.6 | – | 20.7 | Active | inhibition (LX-2 [2]): inactive
3 | H-AVGSPSAQDEASPL-NH2 | 6.2 | 3.9 | 31.2 | – | –
4 | CC(C)[C@@H]1NC(=O)CNC(=O)[C@@H]2CCCN2C(=O)[C@H](CO)NC(=O)[C@H](C)NC(=O)[C@H](CCC(=O)O)NC(=O)[C@H](CC(=O)O)NC(=O)[C@H](CCC(N)=O)NC(=O)[C@H](C)NC(=O)[C@H](CC(=O)O)NC(=O)[C@@H]2CCCN2C(=O)[C@H](CO)NC(=O)CNC(=O)[C@H](C(C)C)NC1=O (cyclo(AQDEASPGVVGSPD)) | 2.2 | 17.6 | 49.5 | – | –
5 | CC(C)C[C@H](NC(=O)[C@@H]1CCCN1C(=O)[C@H](CO)NC(=O)[C@H](C)NC(=O)[C@H](CCC(=O)O)NC(=O)[C@@H]1CC(=O)N[C@@H](C(C)C)C(=O)N[C@@H](C(C)C)C(=O)NCC(=O)N[C@@H](CO)C(=O)N2CCC[C@H]2C(=O)N[C@@H](CO)C(=O)N[C@@H](C)C(=O)N[C@@H](CCC(N)=O)C(=O)N1)C(=O)O (VVGSPSAQDEASPL-OH; lactam N-9) | 36.1 | 39 | 62.2 | – | inhibition (LX2 [5]): Active; inhibition (LX2 [6]): Active; Activity (LX-2 [7]): ~50%; Activity (LX-2 [8]): ~50%; inhibition (LX2 [9]): Active
6 | H-VVGSPSAQDEASAL-NH2 | 20.6 | 18.5 | 23.9 | inactive | Activity (LX-2 [10]): inactive; Activity (LX-2 [11]): inactive
7 | H-VVGSPSAQAEASPL-NH2 | 5.2 | 7.1 | 33.4 | Active | –
8 | H-VAGSPSAQDEASPL-NH2 | 28 | 26.4 | 60 | Active | Activity (LX-2 [11]): Active
9 | CC(C)[C@@H]1NC(=O)CNC(=O)[C@@H]2CCCN2C(=O)[C@H](CO)NC(=O)[C@H](C)NC(=O)[C@H](CCC(=O)O)NC(=O)[C@H](CC(=O)O)NC(=O)[C@H](CCC(N)=O)NC(=O)[C@H](C)NC(=O)CNC(=O)[C@@H]2CCCN2C(=O)[C@H](CO)NC(=O)CNC(=O)[C@H](C(C)C)NC1=O (cyclo(AQDEASPGVVGSPG)) | 8.5 | 5.3 | 2.6 | – | –
10 | CC(C)[C@@H]1NC(=O)CNC(=O)[C@@H]2CCCN2C(=O)[C@H](CO)NC(=O)[C@H](C)NC(=O)[C@H](CCC(=O)O)NC(=O)[C@H](CC(=O)O)NC(=O)[C@H](CCC(N)=O)NC(=O)[C@H](C)NC(=O)[C@H](CS)NC(=O)[C@@H]2CCCN2C(=O)[C@H](CO)NC(=O)CNC(=O)[C@H](C(C)C)NC1=O (cyclo(AQDEASPGVVGSPC)) | 12.3 | 5.3 | 36.4 | – | –
11 | CC(C)C[C@@H]1NC(=O)[C@H](C(C)C)NC(=O)[C@H](CC(C)C)NC(=O)[C@@H]2CCCN2C(=O)[C@H](CO)NC(=O)[C@H](C)NC(=O)[C@H](CCC(=O)O)NC(=O)[C@H](CC(=O)O)NC(=O)[C@H](CCC(N)=O)NC(=O)[C@H](C)NC(=O)[C@H](CO)NC(=O)[C@@H]2CCCN2C(=O)[C@H](CO)NC(=O)CNC1=O (cyclo(AQDEASPLVLGSPS)) | – | – | 27.4 | – | inhibition (LX-2 [1]): inactive; inhibition (LX-2 [2]): inactive
12 | CC(C)C[C@@H]1NC(=O)[C@@H]2CCCN2C(=O)[C@H](CO)NC(=O)[C@H](C)NC(=O)[C@H](CCC(=O)O)NC(=O)[C@H](CC(=O)O)NC(=O)[C@H](CCC(N)=O)NC(=O)[C@H](C)NC(=O)[C@H]([C@@H](C)O)NC(=O)[C@@H]2CCCN2C(=O)[C@H](CO)NC(=O)CNC(=O)[C@H](C(C)C)NC(=O)[C@H](C(C)C)NC1=O (cyclo(AQDEASPLVVGSPT)) | 13.9 | 9.9 | 27 | – | –
13 | H-VVGSPSAADEASPL-NH2 | 11.8 | 10.6 | 19.1 | inactive | Activity (LX-2 [10]): inactive; Activity (LX-2 [11]): inactive
14 | CC(C)C[C@@H]1NC(=O)[C@@H]2CCCN2C(=O)[C@H](CO)NC(=O)[C@H](C)NC(=O)[C@H](CCC(=O)O)NC(=O)[C@H](CC(=O)O)NC(=O)[C@H](CCC(N)=O)NC(=O)[C@H](C)NC(=O)[C@H](CO)NC(=O)[C@@H]2CCCN2C(=O)[C@H](CO)NC(=O)CNC(=O)[C@H](C)NC(=O)[C@H](C(C)C)NC1=O (cyclo(AGSPSAQDEASPLV)) | 0.9 | 11.5 | 44 | – | –
15 | CC(C)C[C@@H]1NC(=O)[C@@H]2CCCN2C(=O)[C@H](CO)NC(=O)[C@H](C)NC(=O)[C@H](CCC(=O)O)NC(=O)[C@H](CC(=O)O)NC(=O)[C@H](CCC(N)=O)NC(=O)C(C)(C)NC(=O)[C@H](CO)NC(=O)[C@@H]2CCCN2C(=O)[C@H](CO)NC(=O)CNC(=O)[C@H](C(C)C)NC(=O)[C@H](C(C)C)NC1=O (cyclo(ASPLVVGSPS[Aib]QDE)) | 26.8 | 24.1 | 75 | – | inhibition (LX2 [5]): Active; inhibition (LX2 [6]): Active; Activity (LX-2 [7]): ~50%; Activity (LX-2 [8]): ~50%; inhibition (LX2 [9]): Active
16 | CC(C)C[C@@H]1NC(=O)[C@@H]2CCCN2C(=O)[C@H](CO)NC(=O)[C@H](C)NC(=O)[C@H](CCC(=O)O)NC(=O)[C@H](CC(=O)O)NC(=O)[C@H](CCC(N)=O)NC(=O)[C@H](C)NC(=O)[C@H](CCCCN)NC(=O)[C@@H]2CCCN2C(=O)[C@H](CO)NC(=O)CNC(=O)[C@H](C(C)C)NC(=O)[C@H](C(C)C)NC1=O (cyclo(AQDEASPLVVGSPK)) | 1.7 | 2.8 | 30 | – | –
17 | CC(C)C[C@@H]1NC(=O)[C@@H]2CCCN2C(=O)[C@H](CO)NC(=O)C(C)(C)NC(=O)[C@H](CCC(=O)O)NC(=O)[C@H](CC(=O)O)NC(=O)[C@H](CCC(N)=O)NC(=O)[C@H](C)NC(=O)[C@H](CO)NC(=O)[C@@H]2CCCN2C(=O)[C@H](CO)NC(=O)CNC(=O)[C@H](C(C)C)NC(=O)[C@H](C(C)C)NC1=O (cyclo(AQDE[Aib]SPLVVGSPS)) | – | 5.2 | 35 | – | inhibition (LX-2 [1]): inactive
18 | H-VVGSPAAQDEASPL-NH2 | 34.6 | 33.4 | 55.3 | – | Activity (LX-2 [11]): Active
19 | H-VVASPSAQDEASPL-NH2 | 6.9 | – | 26.8 | inactive | Activity (LX-2 [10]): inactive; inhibition (LX-2 [2]): inactive; Activity (LX-2 [11]): inactive
20 | H-VVGAPSAQDEASPL-NH2 | 5.9 | – | 26.7 | inactive | Activity (LX-2 [10]): inactive; inhibition (LX-2 [2]): inactive; Activity (LX-2 [11]): inactive
21 | H-VVGSPSAQDEAAPL-NH2 | 21.7 | 11.3 | 28.6 | Active | –
22 | Cc1ccc(=O)n(-c2ccccc2)c1 | – | – | – | – | Activity (Mus musculus [12]): Active; Activity (Mus musculus [13]): Active
23 | H-VVGSASAQDEASPL-NH2 | 7.5 | 3.6 | 24.4 | Active | –
24 | CC(C)C[C@@H]1NC(=O)[C@@H]2CCCN2C(=O)[C@H](CO)NC(=O)CNC(=O)[C@H](C(C)C)NC(=O)[C@H](C(C)C)NC(=O)[C@H](CC(C)C)NC(=O)[C@@H]2CCCN2C(=O)[C@H](CO)NC(=O)[C@H](C)NC(=O)[C@H](CCC(=O)O)NC(=O)[C@H](CC(=O)O)NC(=O)[C@H](CCC(N)=O)NC(=O)[C@H](C)NC1=O (cyclo(AQDEASPLVVGSPL)) | 9.8 | 1.7 | 9 | – | Activity (Mus musculus [12]): Active; Activity (Mus musculus [13]): Active
25 | H-VVGSPSAQDEASPA-NH2 | 34.6 | 38.7 | 54.7 | Active | Activity (LX-2 [11]): Active
